Source: US10954222B2, “Benzothiophene compound, alternative autophagy-inducing agent and anticancer agent including the compound as active ingredient, and method for screening for compound having anticancer activity” (National University Corporation Tokyo Medical and Dental …, priority 2012, dated 2021)
Like-named read-outs stand apart in the source and are kept apart here.

Tests used:
[1] = system: Lamp1-GFP/ATG5-KO MEFs; assay: Evaluation of activity to induce alternative autophagy (fluorescent bright spots due to aggregation of Lamp1-GFP); type: cell-based, mouse
Experimental: First, by using a retrovirus, a gene for expression of a Lamp1-GFP fusion protein (also referred to as “Lamp1-GFP”) was introduced into ATG5-deficient mouse embryonic fibroblasts (also referred to as “ATG5-KO MEFs”). Then, a cell with high expression of Lamp1-GFP was cloned and prepared as Lamp1-GFP/ATG5-KO MEFs.
The ATG5-KO MEFs were prepared by introducing a gene for expression of SV40T antigen into MEFs established from an ATG5-deficient C57/B6J mouse at a fetal age of 14.5 days by an electroporation method using an Nucleofector system (manufactured by amaxa) for immortalization. In addition, the retrovirus was prepared by introducing an MSCV-Lamp1-GFP (zeocin resistant) vector into plat E cells, which were retrovirus packaging cells.
To the Lamp1-GFP/ATG5-KO MEFs seeded at 1×10^4/96 wells on the preceding day, each of the test compounds was added at a final concentration of 50 μM, and the Lamp1-GFP/ATG5-KO MEFs were cultured at 37° C. under 10% CO2 for 5 hours.
Then, for observation, Hoechst 33342 (manufactured by invitrogen) was added at a final concentration of 1 ng/ml to each culture liquid, followed by incubation for 5 minutes. Then, the culture liquid was replaced with 100 μl of HBSS. Subsequently, five visual fields per well were photographed at random with IN CELL ANALYZER 1000 (manufactured by GE Healthcare).
Then, the thus obtained novel benzothiophene compounds (TMD-459 and TMD-460) were evaluated for the ability to induce alternative autophagy by the same method as that described in Example 1. Note that, in Example 10, each of the compounds was added to culture liquids at final concentrations of 10, 20, 30, 40, and 50 μM. In addition, compound #9 was also added as a reference example to culture liquids at the above-described concentrations. Then, 5 hours after the addition of each of these compounds, five visual fields per each well were photographed at random with IN CELL ANALYZER 1000, and the presence or absence of fluorescent bright spots due to the aggregation of Lamp1-GFP was visually determined.

[2] = system: tumor cell line 53T implanted in wild-type C57/B6J mice; assay: In vivo anticancer activity, tumor volume in cancer-bearing mice implanted with 53T; parameters: species or system mouse
Experimental: A tumor cell line (also referred to as “53T”) established from a tumor developed spontaneously in a p53 deficient C57/B6J mouse was implanted at 4 sites in the ventral skin of each of wild-type C57/B6J mice at 3×10^5 cells per site. From the following day, the compounds were administered to the mice every other day five times in total. The concentration of each compound was 0.4 μmol/(50 μl DMSO+100 μl PBS)/mouse/administration. In addition, a negative control group to which only the same amount of DMSO was administered was prepared. Then, 21 days (3 weeks) after the implantation, the tumor diameters of the mice were measured, and the tumor volumes were calculated, and compared with that of the control group.
The 53T was implanted at 4 sites in the ventral skin of each of wild-type C57/B6J mice at 3×10^5 cells per site. From the following day, 0 (DMSO alone), 5, 10, or 20 μM of each of compounds #09 and #13 was administered to six mice every other day five times in total. Then, 21 days (3 weeks) after the implantation, the tumor diameters of the mice were measured, and the tumor volumes were calculated. FIGS. 9 and 11 show the obtained results. Note that, in FIGS. 9 and 11, each point indicates the average volume of the tumors at the four sites in a mouse.
In addition, in the same manner as described above, the 53T was implanted in mice, and, from the following day, each of compound #09 at a concentration of 10 μM and compound #13 at a concentration of 5 μM was administered to four cancer-bearing mice every other day five times in total. Then, 21 days (3 weeks) after the implantation, the tumor diameters of the mice were measured, and the tumor volumes were calculated. In addition, a negative control to which DMSO was administered was also prepared, and the tumor volume was calculated in the same manner. In addition, these experiments were conducted three times independently of each other. FIGS. 10 and 12 show the obtained results. Note that in FIGS. 10 and 12, each point indicates the average volume of the tumors at the four sites in a mouse.

[3] = system: p53-deficient cancer cells (53T); assay: Alternative autophagy-inducing activity in tumor cell line (Lamp2 aggregation, fluorescence and electron microscope); type: cell-based, mouse; conditions: 20 μM, six hours, FIGS. 3 to 6
Experimental: In the same manner as in the above-described <Evaluation of Alternative Autophagy-Inducing Activity> using the Lamp1-GFP/ATG5-KO MEFs, each of the compounds #09 and #13 was added at a final concentration of 20 μM to a culture liquid of the tumor cell line (also referred to as “53T”) established from the tumor developed spontaneously in the p53 deficient C57/B6J mouse. […] Note that, in this evaluation, Lamp2 was used instead of Lamp1. FIGS. 3 to 6 show the obtained results.

[4] = system: mouse tumor cell line 53T; assay: Evaluation of in vitro anticancer activity (Cell titer blue, cell death induction rate); type: cell-based; parameters: key: (CTB of negative control − CTB treated)/CTB of negative control; conditions: 24 hours, CTB
Experimental: First, the mouse tumor cell line 53T was seeded at 2×10^4/well on 96 well plates. Then, on the following day, each of compounds #09 and #13 dissolved in DMSO was added at a final concentration of 1, 5, 10, 20, or 50 μM. In addition, a negative control to which only DMSO was added was prepared. Subsequently, the cells were cultured at 37° C. under 10% CO2 for 24 hours. Then, by using Cell titer blue (CTB) (manufactured by Promega) according to the attached protocol, the amount of the fluorescence of each well of the cells 10 minutes after the addition of the CTB reagent was measured as a CTB measurement value of the cells brought into contact with compound #09 or #13. On the basis of such measurement values, the cell death induction rate of each of compounds #09 and #13 was calculated according to the following formula. Cell death induction rate=(CTB measurement value of negative control−CTB measurement value of cells to which compound was added)/CTB measurement value of negative control

[5] = system: primary cultured fibroblasts (normal cells); assay: Activity to induce cell death specific to cancer cells: normal cells (CTB survival rate); type: cell-based; conditions: 20 μM, FIGS. 7 and 8
Experimental: CTB measurement values were obtained in the same manner as in the above-described <Evaluation of In Vitro Anticancer Activity> by adding each of compounds #09 and #13 at a final concentration of 20 μM to culture liquids of primary cultured fibroblasts (normal cells) and fibroblasts (cancer cells) immortalized with SV40. On the basis of the obtained CTB measurement values, the cell survival rate was calculated over time. Note that the cell survival rate was defined as 1-cell death induction rate. FIGS. 7 and 8 show the obtained results.

[6] = system: fibroblasts (cancer cells) immortalized with SV40; assay: Activity to induce cell death specific to cancer cells: cancer cells (CTB survival rate); type: cell-based; conditions: 20 μM, FIGS. 7 and 8
[7] = system: 53T implanted in wild-type C57/B6J mice; assay: Survival rate of cancer-bearing mice; type: in vivo, mouse; conditions: 10 μM every other day 5 times; compared with etoposide at 10 μM, FIGS. 13 to 15
[8] = system: MEFs immortalized with SV40T antigen; conditions: 24 hours, CTB
[9] = system: MEFs immortalized with SV40T antigen; assay: cells; conditions: Mus musculus, 24 h, read-out: induced cell death of the MEFs immortalized with SV40T antigen

Compound: CCOC(=O)c1c(NC(C)=O)sc2c(OCCN(CC)CC)c(Br)ccc12 [Compound #09, Ethyl 2-Acetylamino-6-bromo-7-[2-(N,N-diethylamino)ethyloxy]benzo[b]thiophene-3-carboxylate]
- alternative autophagy-inducing activity (FIG. 16) ([1]; Example 9, same method as Example 1): having alternative autophagy-inducing activity
- aggregation of Lamp1-GFP, visually determined ([1]; concentrations of 10 μM or higher (10 to 50 μM), 5 hours): aggregation of the Lamp1-GFP was observed in all the cells
- dose dependence of in vivo anticancer activity (FIG. 9) ([2]; 0, 5, 10, or 20 μM): dose-dependent activity
- in vivo anticancer activity (tumor volume vs control group, FIG. 2) ([2]; 0.4 μmol/mouse/administration, every other day five times, 21 days after implantation): selected as compounds having in vivo anticancer activity
- in vivo anticancer activity (tumor volume, FIGS. 9 to 12) ([2]; 5, 10, or 20 μM every other day five times, 21 days after implantation): exhibited in vivo anticancer activity
- anticancer activity (FIG. 17, tumor volumes in cancer-bearing mice) ([2]; Example 9): had anticancer activity
- aggregation of Lamp2 and occurrence of autophagy [3]: aggregation of the lysosomal protein Lamp2 and occurrence of autophagy were observed
- Cell death induction rate ([4]; 1 μM): 0
- Cell death induction rate ([4]; 5 μM): 0.07741
- Cell death induction rate ([4]; 10 μM): 0.1725
- Cell death induction rate ([4]; 20 μM): 0.6305
- Cell death induction rate ([4]; 50 μM): 0.9456
- cell death of normal cells (cell survival rate over time) [5]: hardly induced cell death of the normal cells
- cell death-inducing activity on cancer cells (cell survival rate over time) [6]: exhibited remarkable cell death-inducing activity on the cancer cells
- improvement effect on the survival rate of the cancer-bearing mice [7]: higher improvement effect on the survival rate of the cancer-bearing mice than etoposide
- Cell death induction rate ([8]; 10 μM): 0.7426
- Cell death induction rate ([8]; 20 μM): 0.887
- Cell death induction rate ([8]; 30 μM): 0.89
- Cell death induction rate ([8]; 40 μM): 0.8913
- Cell death induction rate ([8]; 50 μM): 0.8848
- mortality at 20 µM [9]: ≥ 80%
